Measurements reported in patent publication US9814714B2, “Kinase modulation, and indications therefor” (Plexxikon Inc., priority 2015, dated 2017).
Read-outs that look alike come from different tables or passages of the source.

Assays:
[1] = test system: pMEK in HCT116 cells (KRAS-G13D); test: Phospho-MEK AlphaScreen assay, pMEK activation in HCT116; type: cell-based; conditions: Homo sapiens, HCT-116
Procedure: Using AlphaScreen® technology, the ability of Formula I to affect the phosphorylation of ERK and MEK in the cells was measured quantitatively. Following treatment with compound, the cells were lysed, and a sample of the lysate was transferred to an assay plate. The lysate was mixed with antibodies directed against total ERK/MEK, antibodies that recognize specific phosphorylation sites on ERK/MEK, AlphaScreen® anti-mouse IgG Acceptor beads, and Streptavidin Donor beads. Upon excitation of the donor beads with laser light at 680 nm, singlet oxygen was produced. This singlet oxygen was rapidly quenched, unless the AlphaScreen® Acceptor beads were in close proximity, in which case a proximity signal can be measured at 580 nm. In the presence of phosphorylated ERK/MEK, there is a very strong proximity signal. BRAF-V600 inhibitors affect a decrease in this proximity signal in cells expressing BRAF-V600E (e.g. A375) through a decrease in phosphorylation of the BRAF effectors ERK and MEK.
1. One day before the assay, 50,000 cells were plated in each well of a 96-well tissue-culture-treated plate (Corning #3610) in a 50 μL volume. Cells were incubated at 37° C. overnight.
2. Compounds were diluted in DMSO to 500× final concentration. Each compound was plated as an 8-point titration, using 1:3 dilutions in DMSO. The maximum concentration was about 5 mM.
3. […]

BRAF^V600E = BRAF^V600E (Homo sapiens, UniProt P15056, V600E); test: In vitro RAF kinase biochemical assay, BRAF V600E
Procedure: (§1) The in vitro RAF kinase activities were determined by measuring phosphorylation of a biotinylated substrate peptide as described in Tsai et al 2008. Formula II was tested against a panel of 287 kinases at concentrations of 1 μM in duplicate. […] The 287 kinases represent all major branches of the kinome phylogenetic tree. The inhibition screen of 287 kinases was carried out under contract as complementary panels at Invitrogen (Life Technologies, WI, USA) SelectScreen™ profiling service, DiscoverX (CA, USA) KINOMEScan™ service, and Reaction Biology Corporation (PA, USA) Kinase HotSpot^SM service.
(§2) BRAF proteins were produced in insect cells at Plexxikon Inc. as N-terminally His-tagged fragments encompassing the kinase domain.
(§3) 1) Test compounds in DMSO were serially diluted and plated into 384-well assay plates at 1 μL/well.
(§4) 2) Added were 15 μL/well of RAF enzyme and biotinylated-MEK1 substrate in kinase buffer.
(§5) 3) Added were 4 μL of ATP (500 μM) in kinase buffer.
(§6) 5) After a brief spin down, the plate was incubated at about room temperature for 40-50 minutes. 6) Added was 5 μL of Stop buffer at final EDTA 20 mM; anti-phospho-MEK1 1:2,500; donor/acceptor beads 3 μg/mL. 7) After brief spin down, the plate was incubated at room temperature for about 3 hours. 8) The plate was read on the Envision multilabel plate reader (Perkin Elmer). […] 2. Results

[2] = test system: pERK in SKBR3 cells (over-expression of HER2); test: pERK levels in SKBR3; type: cell-based; conditions: human breast adenocarcinoma cell line
Procedure: The compound of Formula II was also evaluated in the human SCC cell line A431 and the human breast adenocarcinoma cell line SKBR3 as these cells achieve MAPK pathway activation by upstream signals feeding into RAS (through over-expression of EGFR and HER2, respectively).
Phospho-ERK AlphaScreen® assay: The degree of ERK phosphorylation was determined using an AlphaScreen® assay where an increase in ERK1/2 phosphorylation at Thr202/Tyr204 brought the donor and acceptor AlphaScreen® beads into close proximity, generating a signal for quantification. To determine the effects of compound treatment on phosphorylation of ERK1/2, cells were plated in a 96-well plate and treated with an 8-point titration of compound for one hour at 37° C. before lysis. To detect pERK, cell lysates were incubated with streptavidin-coated AlphaScreen® donor beads, anti-mouse IgG AlphaScreen® acceptor beads, a biotinylated anti-ERK1/2 rabbit antibody, and a mouse antibody that recognizes ERK1/2 only when it is phosphorylated on Thr202 and Tyr204. […] An increase in ERK1/2 phosphorylation at Thr202/Tyr204 brings the donor and acceptor AlphaScreen® beads into close proximity, generating a signal that can be quantified on an EnVision reader (Perkin Elmer).
Phospho-ERK immunoblot analysis: Western blots were performed by standard techniques and analyzed on an Odyssey Infrared Scanner (Li-COR Biosciences). […]

CRAF = target: T1, CRAF (Homo sapiens, UniProt P04049, Y340D/Y341D); test: In vitro RAF kinase biochemical assay, activated CRAF
T1 construct: GST (N); purchased Millipore 14-352; host or cells: insect cells
Procedure: as §3, §4, §5, §6

[3] = test system: phospho-ERK1/2 (T202/Y204, pERK) in RAS mutant and BRAF^V600E cell lines; test: pERK screen in cell line panel: ERK pathway inhibition index (EPII); type: cell-based; conditions: for pERK activation in RAS mutant cell lines (in words): at the concentrations tested; for ERK pathway inhibition index (EPII): ratio between mean pERK activation EC50 (B9, IPC-298, HCT116) and mean pERK inhibition IC50 (A375, COLO829)
Procedure: Phospho-ERK AlphaScreen® assay: The degree of ERK phosphorylation was determined using an AlphaScreen® assay where an increase in ERK1/2 phosphorylation at Thr202/Tyr204 brought the donor and acceptor AlphaScreen® beads into close proximity, generating a signal for quantification. To determine the effects of compound treatment on phosphorylation of ERK1/2, cells were plated in a 96-well plate and treated with an 8-point titration of compound for one hour at 37° C. before lysis. To detect pERK, cell lysates were incubated with streptavidin-coated AlphaScreen® donor beads, anti-mouse IgG AlphaScreen® acceptor beads, a biotinylated anti-ERK1/2 rabbit antibody, and a mouse antibody that recognizes ERK1/2 only when it is phosphorylated on Thr202 and Tyr204. The biotinylated ERK1/2 antibody binds to both the streptavidin-coated AlphaScreen® donor beads and to ERK1/2 (regardless of its phosphorylation state), and the phospho-ERK1/2 antibody binds to the acceptor beads and to ERK1/2 that is phosphorylated at Thr202/Tyr204. An increase in ERK1/2 phosphorylation at Thr202/Tyr204 brings the donor and acceptor AlphaScreen® beads into close proximity, generating a signal that can be quantified on an EnVision reader (Perkin Elmer).

BRAF = BRAF (Homo sapiens, UniProt P15056); test: In vitro RAF kinase biochemical assay, wild-type BRAF
Procedure: as §1
BRAF, residues L416 through H766 fused at the N-terminus with a GST tag, was produced in insect cells, and BRAF was purchased from Millipore (Catalog #14-530).
as §3, §4, §5, §6

BRAF_V600M = BRAF_V600M (Homo sapiens, UniProt P15056, V600M); test: RAF kinase biochemical assay, BRAF V600M; conditions: Table 3; ATP 100 μM
Procedure: as §2, §3, §4, §5, §6

[4] = Table 1, average of more than 4 experiments, read-out: Biochemical IC50 BRAF^V600E
[5] = Table 1, average of more than 4 experiments

Sequence of BRAF^V600E (P15056 448-723 V600E): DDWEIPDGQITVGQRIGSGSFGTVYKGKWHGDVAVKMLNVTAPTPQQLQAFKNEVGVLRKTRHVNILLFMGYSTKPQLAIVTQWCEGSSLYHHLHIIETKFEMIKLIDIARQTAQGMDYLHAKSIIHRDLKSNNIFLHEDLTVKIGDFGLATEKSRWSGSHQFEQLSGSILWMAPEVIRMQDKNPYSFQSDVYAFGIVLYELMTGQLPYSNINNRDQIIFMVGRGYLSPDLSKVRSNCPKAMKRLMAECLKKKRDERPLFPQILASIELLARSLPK
Sequence of BRAF (P15056 416-766): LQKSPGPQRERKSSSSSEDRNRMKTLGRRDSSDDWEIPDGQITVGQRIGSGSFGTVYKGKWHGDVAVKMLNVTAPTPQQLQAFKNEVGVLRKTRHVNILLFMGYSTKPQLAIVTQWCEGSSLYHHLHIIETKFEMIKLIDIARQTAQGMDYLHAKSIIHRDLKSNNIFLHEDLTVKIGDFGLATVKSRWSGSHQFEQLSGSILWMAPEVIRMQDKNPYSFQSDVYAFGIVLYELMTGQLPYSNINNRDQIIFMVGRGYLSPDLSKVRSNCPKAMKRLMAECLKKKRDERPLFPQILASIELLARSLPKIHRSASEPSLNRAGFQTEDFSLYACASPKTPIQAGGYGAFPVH
T1 sequence (P04049 307-648 Y340D/Y341D): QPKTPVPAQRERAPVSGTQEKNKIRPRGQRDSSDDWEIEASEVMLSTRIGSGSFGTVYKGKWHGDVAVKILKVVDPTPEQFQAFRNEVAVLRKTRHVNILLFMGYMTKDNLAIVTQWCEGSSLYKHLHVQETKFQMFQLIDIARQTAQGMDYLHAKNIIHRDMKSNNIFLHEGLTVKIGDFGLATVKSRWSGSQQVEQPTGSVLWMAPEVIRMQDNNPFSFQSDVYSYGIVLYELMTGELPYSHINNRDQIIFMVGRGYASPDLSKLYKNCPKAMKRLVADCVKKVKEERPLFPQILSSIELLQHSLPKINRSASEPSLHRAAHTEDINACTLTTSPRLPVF
Sequence of BRAF_V600M (P15056 432-726 V600M): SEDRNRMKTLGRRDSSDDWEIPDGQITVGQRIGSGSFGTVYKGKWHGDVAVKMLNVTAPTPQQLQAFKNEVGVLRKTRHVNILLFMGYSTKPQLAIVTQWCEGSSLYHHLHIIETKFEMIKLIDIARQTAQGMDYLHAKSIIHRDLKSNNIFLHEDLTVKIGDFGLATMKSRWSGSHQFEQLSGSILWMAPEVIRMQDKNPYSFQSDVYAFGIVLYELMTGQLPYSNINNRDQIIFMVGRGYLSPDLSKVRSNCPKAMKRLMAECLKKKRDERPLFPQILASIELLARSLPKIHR

SMILES	EC50 [1] [nM]	IC50 against mutated BRAF kinases including BRAFV600E (in words) (BRAF^V600E)	IC50 (BRAF^V600E; [4]) [nM]	Change of pERK levels in SKBR3 (in words) [2]	IC50 (CRAF; [5]) [nM]	pERK activation in RAS mutant cell lines (in words) [3]	ERK pathway inhibition index (EPII) [3]	IC50 (BRAF; [5]) [nM]	IC50 (BRAF^V600E; Table 3, ATP 100 μM, read-out: Biochemical IC50 BRAF_V600E) [nM]	IC50 (BRAF_V600M) [nM]	IC50 (CRAF; Table 3, ATP 100 μM) [nM]	IC50 (BRAF; Table 3, ATP 100 μM) [nM]
CCCS(=O)(=O)Nc1ccc(F)c(C(=O)c2c[nH]c3ncc(-c4ccc(Cl)cc4)cc23)c1F [Vemurafenib, vemurafenib, reference compound]	769	–	–	–	–	–	–	–	–	–	–	–
CCN(C)S(=O)(=O)Nc1ccc(F)c(C(=O)c2c[nH]c3ncc(-c4cnc(C5CC5)nc4)cc23)c1F [Formula II, 5-(2-cyclopropylpyrimidin-5-yl)-3-[3-[[ethyl(methyl)sulfamoyl]amino]-2,6-difluoro-benzoyl]-1H-pyrrolo[2,3-b]pyridine]	–	single digit	3.8	did not increase pERK levels	23	essentially no pERK activation	>50,000	14	–	–	–	–
O=C(c1c(F)ccc(NS(=O)(=O)N2CC[C@@H](F)C2)c1F)c1c[nH]c2ncc(-c3cnc(C4CC4)nc3)cc12 [Formula I, (3R)—N-[3-[5-(2-cyclopropylpyrimidin-5-yl)-1H-pyrrolo[2,3-b]pyridine-3-carbonyl]-2,4-difluorophenyl]-3-fluoropyrrolidine-1-sulfonamide]	10000	single digit	4.2	–	91	essentially no pERK activation	>10,000	140	4.4	9.8	22.6	14.3
